In BindingDB's records for doi:10.7270/Q20V8B80 (The Scripps Research Institute Molecular Screening Center, 2011):

Target: T1, Caspase-7 (Homo sapiens, UniProt P55210)
T1 sequence (P55210 whole entry): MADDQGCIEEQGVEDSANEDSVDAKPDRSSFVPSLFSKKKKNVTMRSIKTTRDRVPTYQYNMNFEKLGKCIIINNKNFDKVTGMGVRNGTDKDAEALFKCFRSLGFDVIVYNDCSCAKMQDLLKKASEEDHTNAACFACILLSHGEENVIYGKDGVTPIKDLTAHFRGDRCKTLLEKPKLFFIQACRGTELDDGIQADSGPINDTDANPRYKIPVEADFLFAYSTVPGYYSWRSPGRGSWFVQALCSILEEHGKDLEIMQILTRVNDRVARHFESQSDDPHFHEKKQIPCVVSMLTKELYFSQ
Experiment: procaspase-7 activators, dose response, dual procaspase-3/-7 activator project, biochemical, absorbance, human (AID 504330)

Row | EC50 [µM] | SMILES
1 | > 85.3 | COc1ccccc1-n1c(O)c2n(-c3ccccc3)[nH]c(C(=O)c3ccccc3)c-2c1=O
2 | > 85.3 | COC(=O)c1[nH]n(-c2ccc(Cl)cc2)c2c(O)n(-c3ccccc3OC)c(=O)c1-2 [1-(4-Chloro-phenyl)-5-(2-methoxy-phenyl)-4,6-dioxo-1,3a,4,5,6,6a-hexahydro-pyrrolo[3,4-c]pyrazole-3-carboxylic acid methyl ester]
3 | > 85.3 | O=C(c1ccccc1)c1[nH]n(-c2ccccc2)c2c(O)n(-c3ccccc3)c(=O)c1-2 [3-benzoyl-1,5-diphenyl-3a,6a-dihydropyrrolo[3,4-c]pyrazole-4,6-dione]
4 | > 85.3 | CCOC(=O)C(C#N)C=Nc1cc(OC)ccc1OC (configuration not stated) [(E)-2-Cyano-3-(2,5-dimethoxy-phenylamino)-acrylic acid ethyl ester]
5 | > 85.3 | C=CC=Nc1c(Cl)c(O)n(-c2cccc(Cl)c2Cl)c1O [MLS000533809]
6 | 27.8 | Cc1[nH]nc2c1C(c1c[nH]c3ccccc13)C(C#N)C(=N)O2 (configuration not stated) [MLS001030009]
7 | > 85.3 | CCOc1ccc(NC=C2C(=O)CC(c3ccco3)CC2=O)cc1 (configuration not stated) [SMR000268302]
